According to patent US20240425491A1, “HETEROARYL COMPOUNDS USEFUL IN THE TREATMENT OF COGNITIVE DISORDERS” (University College Cardiff Consultants Limited, priority 2021, published 2024):

Legend:
[1] = target: T1, human α5β3γ2 GABAARs in mouse L(tk−) cells (Homo sapiens, UniProt P18507+P31644); experiment: In vitro electrophysiological recording assay (α5-GABAAR relative efficacy), QPatch; format: cell-based; details: GABA EC10-20
T1 construct: expressed in transfected cells; host or cells: mouse L(tk−) cells, dexamethasone-inducible vector pMSGneo
Excerpt: Mouse L(tk^−) cells stably expressing human α1β3γ2, α2β3γ2, α3β3γ2, α5β3γ2 GABAARs generated by transfection of the individual subunits in the dexamethasone-inducible expression vector pMSGneo in mouse L(tk^−) cells (Hadingham et al., 1993, Mol. Pharmacol. 43:970-975 and 1993, Mol. Pharmacol. 44:1211-1218) were used for binding and functional assays. For certain compounds, HEK293 cells stable expressing the human α1β3γ2L, α2β3γ2L, α3β3γ2L and α5β3γ2L GABAA receptors were used to evaluate their functional effects in a SyncroPatch electrophysiology assay.
For QPatch electrophysiology testing, 1 μM dexamethasone was added to the culture medium of L(tk^−) cells 24 hours before the recordings were performed. Cells were typically used for electrophysiology experiments 72-96 hours after splitting.
The efficacy of modulators was evaluated using either the automated patch-clamp platform QPatch16 (Sophion, Copenhagen, Denmark) or the SyncroPatch 384i (Nanion Technologies, Germany). Cells were harvested from flasks by enzymatic dissociation and re-suspended in serum-free medium.
For QPatch recordings, all experiments were carried out at room temperature (20-22° C.) using a standard whole cell procedure and physiological solutions. Gigaseals were formed upon execution of a combined suction/voltage protocol with subsequent increased suction leading to the whole-cell configuration. The currents recorded were acquired at 1 KHz and filtered at 0.3 KHz using a Bessel filter. Whole-cell currents were measured at a holding potential of −65 mV.
For QPatch recordings, the extracellular solution contained of (in mM): 145 NaCl, 4 KCl, 1 MgCl2, 2CaCl2, 10 HEPES, 10 D-glucose (pH 7.4), and the intracellular solution consisted of (in mM): 96 KCl, 28 CsCl, 25 KOH, 4.3 CaCl2), 1.4 MgCl2, 10 EGTA, HEPES, 3 MgATP (pH 7.2). The osmolarities of the extracellular and intracellular solutions were 305 and 295 mOsm respectively.
The effects of modulators were evaluated in the presence of a submaximal GABA concentration, giving typically 10-20% activation (GABA EC10-20) of the response elicited by a saturating GABA concentration. For QPatch recordings, to check and ensure baseline current stability before compound addition, five consecutive applications of GABA EC10-20 alone (each application with a 2 s duration, separated by minimum 1 min wash off periods) were performed before compound addition. The test compound was applied using the pipetting system of the QPatch system 1 min at least prior to co-application with GABA EC10-20. For SyncroPatch recordings, GABA EC20 alone was applied three times (1 s long applications, with wash steps in-between) before compound addition. This was followed by a 1-2 min pre-incubation with the test compound and then re-application of GABA EC10-20 in the presence of the compound. Finally, following a further wash step, a saturating concentration of GABA was applied, allowing the accurate evaluation for each cell of the percentage baseline activation elicited by the submaximal GABA applied.
The compounds were first dissolved in DMSO as a 10 mM stock and then further diluted to the testing concentrations so that the final DMSO concentration in the extracellular recording solution was kept constant at 0.1% for the QPatch recordings, or 0.2% for the SyncroPatch recordings.
The % efficacy of modulators was determined from the GABA elicited currents recorded in the presence and absence of the test compound, using the formula:
[((compound peak current−leak)−(GABA peak current−leak))/(GABA peak current−leak)]*100,
where ‘leak’ is the leak baseline current at −65 mV, ‘compound peak current’ is the current elicited by co-application of compound and GABA, and ‘GABA peak current’ is the current elicited by GABA alone during the 5th GABA application. The results were presented as ‘relative efficacy’ for each compound generally at a concentration equal or higher than 100 times their determined Ki. […]

[2] = target: T2, human recombinant GABAAR containing α5β3γ2 subunits (benzodiazepine site) (Homo sapiens, UniProt P18507+P31644); experiment: In vitro radioligand binding assay (α5-GABAAR Ki); details: inhibition of [3H]Ro15-1788 binding, membranes of L(tk−) cells expressing human α5β3γ2; read-out: α5-GABAAR Ki
T2 construct: expressed in transfected cells; host or cells: mouse L(tk−) cells, dexamethasone-inducible vector pMSGneo
Summary of the method: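 Displacement of 4 nM [^3H]flumazenil from the benzodiazepine site, read by filtration and scintillation, gave IC50, converted to Ki (Cheng-Prusoff, saturation-derived Kd). Receptor: human α5β3γ2 membranes from L(tk^−) cells, 50 μg protein/well; 1 h, 4° C; TP003 1 μM defined nonspecific binding.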

T1 sequence (P31644 32-462): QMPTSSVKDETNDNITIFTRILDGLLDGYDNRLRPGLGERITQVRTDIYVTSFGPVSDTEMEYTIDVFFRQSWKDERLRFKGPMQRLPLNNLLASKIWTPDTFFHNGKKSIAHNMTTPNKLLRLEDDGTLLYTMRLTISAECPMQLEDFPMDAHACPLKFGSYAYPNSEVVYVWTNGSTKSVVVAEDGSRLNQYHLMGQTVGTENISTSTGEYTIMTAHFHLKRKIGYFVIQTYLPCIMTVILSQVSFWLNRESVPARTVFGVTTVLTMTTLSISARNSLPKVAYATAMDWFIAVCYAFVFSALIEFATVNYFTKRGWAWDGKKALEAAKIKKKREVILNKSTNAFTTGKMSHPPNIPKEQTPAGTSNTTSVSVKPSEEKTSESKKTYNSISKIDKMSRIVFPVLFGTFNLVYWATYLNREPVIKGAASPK
T1 sequence (P28472 26-473 partner): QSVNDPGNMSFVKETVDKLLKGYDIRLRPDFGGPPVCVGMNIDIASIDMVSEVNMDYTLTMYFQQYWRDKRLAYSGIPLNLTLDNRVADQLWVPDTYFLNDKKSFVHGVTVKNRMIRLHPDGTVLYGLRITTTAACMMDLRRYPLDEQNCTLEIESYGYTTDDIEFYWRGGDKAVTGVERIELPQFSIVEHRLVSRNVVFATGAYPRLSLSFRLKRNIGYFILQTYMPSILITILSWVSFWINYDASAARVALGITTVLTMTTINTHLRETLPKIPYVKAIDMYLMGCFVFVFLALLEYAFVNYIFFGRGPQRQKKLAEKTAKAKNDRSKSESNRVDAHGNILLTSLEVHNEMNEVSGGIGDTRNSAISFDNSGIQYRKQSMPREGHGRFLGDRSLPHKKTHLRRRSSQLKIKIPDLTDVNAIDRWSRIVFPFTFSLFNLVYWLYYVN
T1 sequence (P18507 40-475): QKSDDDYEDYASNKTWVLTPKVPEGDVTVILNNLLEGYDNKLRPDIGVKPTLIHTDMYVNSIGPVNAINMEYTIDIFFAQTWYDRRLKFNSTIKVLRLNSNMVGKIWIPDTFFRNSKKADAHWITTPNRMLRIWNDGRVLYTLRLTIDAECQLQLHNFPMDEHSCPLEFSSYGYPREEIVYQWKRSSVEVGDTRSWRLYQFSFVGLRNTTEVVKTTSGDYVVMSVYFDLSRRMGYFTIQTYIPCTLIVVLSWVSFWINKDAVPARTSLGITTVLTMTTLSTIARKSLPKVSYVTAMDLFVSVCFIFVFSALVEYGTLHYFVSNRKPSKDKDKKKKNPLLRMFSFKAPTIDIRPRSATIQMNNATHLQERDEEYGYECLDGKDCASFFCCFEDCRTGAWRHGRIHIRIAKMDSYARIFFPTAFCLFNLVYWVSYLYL
T2 sequence (P31644 32-462): as the sequence (P31644 32-462) above
T2 sequence (P28472 26-473 partner): as the sequence (P28472 26-473 partner) above
T2 sequence (P18507 40-475): as the sequence (P18507 40-475) above

Row | Structure (SMILES) | α5-GABAAR Relative Efficacy (to DMCM), Qpatch ([1]; Conc 0.3 μM) | Ki [2] [nM] | α5-GABAAR Relative Efficacy (to DMCM), Qpatch ([1]; Conc 0.1 μM) | α5-GABAAR Relative Efficacy (to DMCM), Qpatch ([1]; Conc 3 μM) | α5-GABAAR Relative Efficacy (to DMCM), Qpatch ([1]; Conc 1 μM)
1 | COc1nc(-c2ccn3nc(N)nc3c2)ccc1NC(=O)c1c(-c2ccccc2)noc1C.Cl [Example 61, N-[6-(2-Amino-[1,2,4]triazolo[1,5-a]pyridin-7-yl)-2-methoxy-3-pyridyl]-5-methyl-3-phenyl-isoxazole-4-carboxamide hydrochloride] | −0.85 | 1.4 |  |  | 
2 | COc1nc(-c2ccc3[nH]c(=O)n(C)c3c2)ccc1NC(=O)c1c(-c2ccccc2)noc1C [Example 77, N-(2-Methoxy-6-(3-methyl-2-oxo-2,3-dihydro-1H-benzo[d]imidazol-5-yl)pyridin-3-yl)-5-methyl-3-phenylisoxazole-4-carboxamide] |  | 16.1 |  | −0.22 | 
3 | CCn1nc(-c2nccs2)cc1-c1ccc(NC(=O)c2c(-c3ccccc3)noc2C)c(OC)n1 [Example 80, N-(6-(1-Ethyl-3-(thiazol-2-yl)-1H-pyrazol-5-yl)-2-methoxypyridin-3-yl)-5-methyl-3-phenylisoxazole-4-carboxamide] |  | 19.5 |  | −0.65 | 
4 | COc1nc(-c2cc(C)nc(N)c2)ccc1NC(=O)c1c(-c2ccccc2)noc1C [Example 81, N-(2′-Amino-6-methoxy-6′-methyl-[2,4′-bipyridin]-5-yl)-5-methyl-3-phenylisoxazole-4-carboxamide] |  | 8 |  |  | −1.26
5 | COc1nc(-c2ccnc(N(C)C)c2)ccc1NC(=O)c1c(-c2ccccc2)noc1C [Example 82, N-(2′-(Dimethylamino)-6-methoxy-[2,4′-bipyridin]-5-yl)-5-methyl-3-phenyl-isoxazole-4-carboxamide] |  | 7.9 |  |  | −0.65
6 | COc1nc(-c2cnn(C3CCCCO3)n2)ccc1NC(=O)c1c(-c2ccccc2)noc1C (stereo not drawn) [Example 84, N-(2-Methoxy-6-(2-(tetrahydro-2H-pyran-2-yl)-2H-1,2,3-triazol-4-yl)pyridin-3-yl)-5-methyl-3-phenylisoxazole-4-carboxamide] |  | 10.7 |  | −0.51 | 
7 | COc1nc(-c2ccncc2N)ccc1NC(=O)c1c(-c2ccccc2)noc1C [Example 86, N-(3′-Amino-6-methoxy-[2,4′-bipyridin]-5-yl)-5-methyl-3-phenylisoxazole-4-carboxamide] |  | 3.2 |  |  | −0.65
8 | COc1nc(-c2cncc(-n3cccn3)c2)ccc1NC(=O)c1c(-c2ccccc2)noc1C [Example 90, N-(6-Methoxy-5′-(1H-pyrazol-1-yl)-[2,3′-bipyridin]-5-yl)-5-methyl-3-phenylisoxazole-4-carboxamide] |  | 3.4 |  |  | −0.58
9 | COc1nc(-c2ccc3nnn(C)c3c2)ccc1NC(=O)c1c(-c2ccccc2)noc1C [Example 91, N-(2-Methoxy-6-(1-methyl-1H-benzo[d] [1,2,3]triazol-6-yl)pyridin-3-yl)-5-methyl-3-phenylisoxazole-4-carboxamide] |  | 10.1 |  | −0.45 | 
10 | COc1nc(-c2cnc(N3CCCC(CO)C3)nc2)ccc1NC(=O)c1c(-c2ccccc2)noc1C (stereo not drawn) [Example 92, N-(6-(2-(3-(Hydroxymethyl)piperidin-1-yl)pyrimidin-5-yl)-2-methoxypyridin-3-yl)-5-methyl-3-phenylisoxazole-4-carboxamide] | −0.66 | 3 |  |  | 
11 | COc1nc(-c2cncnc2OC)ccc1NC(=O)c1c(-c2ccccc2)noc1C [Example 93, N-(2-Methoxy-6-(4-methoxypyrimidin-5-yl)pyridin-3-yl)-5-methyl-3-phenyl-isoxazole-4-carboxamide] |  | 8.2 |  |  | −0.73
12 | COc1nc(-c2cncs2)ccc1NC(=O)c1c(-c2ccccc2)noc1C [Example 94, N-(2-Methoxy-6-(thiazol-5-yl)pyridin-3-yl)-5-methyl-3-phenylisoxazole-4-carboxamide] |  | 21.7 |  | −0.50 | 

Results, then the compound that gave them:

Row | α5-GABAAR Relative Efficacy (to DMCM), Qpatch ([1]; Conc 0.3 μM) | Ki [2] [nM] | α5-GABAAR Relative Efficacy (to DMCM), Qpatch ([1]; Conc 0.1 μM) | α5-GABAAR Relative Efficacy (to DMCM), Qpatch ([1]; Conc 3 μM) | α5-GABAAR Relative Efficacy (to DMCM), Qpatch ([1]; Conc 1 μM) | Structure (SMILES)
13 | −0.61 | 1.9 |  |  |  | COc1nc(-n2cnnc2)ccc1NC(=O)c1c(-c2ccccc2)noc1C [Example 62, N-[2-Methoxy-6-(1,2,4-triazol-4-yl)-3-pyridyl]-5-methyl-3-phenyl-isoxazole-4-carboxamide]
14 |  | 0.7 | −0.89 |  |  | COC(=O)c1ncc(-c2ccc(NC(=O)c3c(-c4ccccc4)noc3C)c(OC)n2)cn1 [Example 70, Methyl 5-[6-methoxy-5-[(5-methyl-3-phenyl-isoxazole-4-carbonyl)amino]-2-pyridyl]pyrimidine-2-carboxylate]
15 | −0.94 | 2.8 |  |  |  | COc1ccc(-c2cnc(NC(=O)c3c(-c4ccccc4)noc3C)c(OC)n2)cn1 [Example 71, N-[3-Methoxy-5-(6-methoxy-3-pyridyl)pyrazin-2-yl]-5-methyl-3-phenyl-isoxazole-4-carboxamide]
16 | −1.04 | 2 |  |  |  | COc1ncc(-c2cnc(NC(=O)c3c(-c4ccccc4)noc3C)c(OC)n2)cn1 [Example 72, N-[3-Methoxy-5-(2-methoxypyrimidin-5-yl)pyrazin-2-yl]-5-methyl-3-phenyl-isoxazole-4-carboxamide]
17 |  | 0.6 | −0.92 |  |  | CNC(=O)c1ncc(-c2ccc(NC(=O)c3c(-c4ccccc4)noc3C)c(OC)n2)cn1 [Example 75, N-[2-Methoxy-6-[2-(methylcarbamoyl)pyrimidin-5-yl]-3-pyridyl]-5-methyl-3-phenyl-isoxazole-4-carboxamide]
18 |  | 1 | −0.42 |  |  | COc1nc(-c2cnccc2N)ccc1NC(=O)c1c(-c2ccccc2)noc1C [Example 78, N-(4′-Amino-6-methoxy-[2,3′-bipyridin]-5-yl)-5-methyl-3-phenylisoxazole-4-carboxamide]
19 |  | 0.8 | −0.76 |  |  | COc1nc(-c2cnc3n2CCOC3)ccc1NC(=O)c1c(-c2ccccc2)noc1C [Example 79, N-[6-(6,8-Dihydro-5H-imidazo[2,1-c][1,4]oxazin-3-yl)-2-methoxy-3-pyridyl]-5-methyl-3-phenyl-isoxazole-4-carboxamide]
20 | −0.66 | 1.4 |  |  |  | COc1nc(-c2cncc(C(=O)N(C)C)c2)ccc1NC(=O)c1c(-c2ccccc2)noc1C [Example 95, N-(5′-(Dimethylcarbamoyl)-6-methoxy-[2,3′-bipyridin]-5-yl)-5-methyl-3-phenyl-isoxazole-4-carboxamide]
21 | −0.52 | 1.9 |  |  |  | COc1nc(-c2ccc3nncn3c2)ccc1NC(=O)c1c(-c2ccccc2)noc1C [Example 96, N-(6-([1,2,4] Triazolo[4,3-a]pyridin-6-yl)-2-methoxypyridin-3-yl)-5-methyl-3-phenylisoxazole-4-carboxamide]
